target: human APJ receptor (Homo sapiens (Human), UniProt P35414); test: [35S]GTPγS binding assay on membranes from CHO cells stably expressing human APJ receptor; format: biochemical; conditions: membranes of CHO cells stably expressing human APJ receptor, read-out: Activity hAPJ SPA EC50 IP
How it was run: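 Agonist EC50 values come from non-linear regression of mean data from several independent runs. Membranes of CHO cells stably expressing human APJ were incubated 90 min at room temperature with [35S]GTPγS in buffer with optimized GDP, MgCl2 and NaCl, then read on a microplate imager.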

human APJ receptor, sequence (P35414 whole entry): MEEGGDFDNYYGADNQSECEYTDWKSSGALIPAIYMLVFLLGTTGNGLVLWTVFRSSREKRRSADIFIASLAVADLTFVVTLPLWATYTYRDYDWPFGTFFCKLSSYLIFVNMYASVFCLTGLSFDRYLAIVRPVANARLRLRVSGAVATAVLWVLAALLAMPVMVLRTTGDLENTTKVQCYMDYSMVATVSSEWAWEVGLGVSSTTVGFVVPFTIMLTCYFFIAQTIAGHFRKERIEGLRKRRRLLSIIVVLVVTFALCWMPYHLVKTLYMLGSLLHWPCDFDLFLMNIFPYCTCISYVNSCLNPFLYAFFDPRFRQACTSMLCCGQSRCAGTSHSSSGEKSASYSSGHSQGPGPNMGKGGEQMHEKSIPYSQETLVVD

SMILES	EC50
COc1cccc(-c2nnc(NS(=O)(=O)[C@@H](C)[C@H](OC)c3ncc(Cl)cn3)n2C2CCC2)n1 [Example 182.0, (1R,2S)-1-(5-chloro-2-pyrimidinyl)-N-(4-cyclobutyl-5-(6-methoxy-2-pyridinyl)-4H-1,2,4-triazol-3-yl)-1-methoxy-2-propanesulfonamide]	25 nM
COc1cccc(-c2nnc(NS(=O)(=O)[C@@H](C)[C@H](OC)c3ncc(Cl)cn3)n2C2CCCC2)n1 [Example 183.0, (1R,2S)-1-(5-chloro-2-pyrimidinyl)-N-(4-cyclopentyl-5-(6-methoxy-2-pyridinyl)-4H-1,2,4-triazol-3-yl)-1-methoxy-2-propanesulfonamide]	4.8 nM
COc1cccc(-c2nnc(NS(=O)(=O)[C@@H](C)[C@H](OC)c3ncc(Cl)cn3)n2C2CCCCC2)n1 [Example 184.0, (1R,2S)-1-(5-chloro-2-pyrimidinyl)-N-(4-cyclohexyl-5-(6-methoxy-2-pyridinyl)-4H-1,2,4-triazol-3-yl)-1-methoxy-2-propanesulfonamide]	7.3 nM
COc1cccc(-c2nnc(NS(=O)(=O)[C@@H](C)[C@H](OC)c3ncc(Cl)cn3)n2[C@@H]2[C@@H](OC)CCC[C@H]2OC)n1 [Example 185.0, (1R,2S)-1-(5-chloro-2-pyrimidinyl)-N-(4-((1r,2R,6 S)-2,6-dimethoxycyclohexyl)-5-(6-methoxy-2-pyridinyl)-4H-1,2,4-triazol-3-yl)-1-methoxy-2-propanesulfonamide]	7.2 nM
COc1cccc(-c2nnc(NS(=O)(=O)[C@@H](C)[C@H](OC)c3ncc(Cl)cn3)n2Cc2cnoc2)n1 [Example 186.0, (1R,2S)-1-(5-chloropyrimidin-2-yl)-N-(4-(isoxazol-4-ylmethyl)-5-(6-methoxypyridin-2-yl)-4H-1,2,4-triazol-3-yl)-1-methoxypropane-2-sulfonamide]	98 nM
COc1cccc(-c2nnc(NS(=O)(=O)[C@@H](C)[C@H](C)c3ncc(Cl)cn3)n2Cc2cnoc2)n1 [Example 187.0, (2S,3R)-3-(5-chloropyrimidin-2-yl)-N-(4-(isoxazol-4-ylmethyl)-5-(6-methoxypyridin-2-yl)-4H-1,2,4-triazol-3-yl)butane-2-sulfonamide]	650 nM
COc1cccc(-c2nnc(NS(=O)(=O)[C@@H](C)[C@H](OC)c3cnc(C)cn3)n2Cc2cnoc2)n1 [Example 188.0, (1R,2S)-N-(4-(isoxazol-4-ylmethyl)-5-(6-methoxypyridin-2-yl)-4H-1,2,4-triazol-3-yl)-1-methoxy-1-(5-methylpyrazin-2-yl)propane-2-sulfonamide]	1400 nM
COc1cccc(-c2nnc(NS(=O)(=O)[C@@H](C)[C@H](OC)c3ncc(Cl)cn3)n2Cc2cc(C)no2)n1 [Example 189.0, (1R,2S)-1-(5-chloropyrimidin-2-yl)-1-methoxy-N-(5-(6-methoxypyridin-2-yl)-4-((3-methylisoxazol-5-yl)methyl)-4H-1,2,4-triazol-3-yl)propane-2-sulfonamide]	18 nM
COc1cccc(-c2nnc(NS(=O)(=O)[C@@H](C)[C@H](C)c3ncc(Cl)cn3)n2Cc2cc(C)no2)n1 [Example 190.0, (2S,3R)-3-(5-chloropyrimidin-2-yl)-N-(5-(6-methoxypyridin-2-yl)-4((3-methylisoxazol-5-yl)methyl)-4H-1,2,4-triazol-3-yl)butane-2-sulfonamide]	26 nM
COc1cccc(-c2nnc(NS(=O)(=O)[C@@H](C)[C@H](OC)c3cnc(C)cn3)n2Cc2cc(C)no2)n1 [Example 191.0, (1R,2S)-1-methoxy-N-(5-(6-methoxypyridin-2-yl)-4-((3-methylisoxazol-5-yl)methyl)-4H-1,2,4-triazol-3-yl)-1-(5-methylpyrazin-2-yl)propane-2-sulfonamide]	390 nM
CCc1noc(C)c1Cn1c(NS(=O)(=O)[C@@H](C)[C@H](OC)c2ncc(Cl)cn2)nnc1-c1cccc(OC)n1 [Example 192.0, (1R,2S)-1-(5-chloro-2-pyrimidinyl)-N-(4-((3-ethyl-5-methyl-1,2-oxazol-4-yl)methyl)-5-(6-methoxy-2-pyridinyl)-4H-1,2,4-triazol-3-yl)-1-methoxy-2-propanesulfonamide]	260 nM
CCc1noc(C)c1Cn1c(NS(=O)(=O)[C@@H](C)[C@H](C)c2ncc(Cl)cn2)nnc1-c1cccc(OC)n1 [Example 193.0, (2S,3R)-3-(5-chloro-2-pyrimidinyl)-N-(4-((3-ethyl-5-methyl-1,2-oxazol-4-yl)methyl)-5-(6-methoxy-2-pyridinyl)-4H-1,2,4-triazol-3-yl)-2-butanesulfonamide]	430 nM
CCc1noc(C)c1Cn1c(NS(=O)(=O)[C@@H](C)[C@@H](OC(C)C)c2ncc(C)cn2)nnc1-c1cccc(OC)n1 [Example 194.0, (1S,2S)-N-(4-((3-ethyl-5-methyl-1,2-oxazol-4-yl)methyl)-5-(6-methoxy-2-pyridinyl)-4H-1,2,4-triazol-3-yl)-1-(5-methyl-2-pyrimidinyl)-1-(2-propanyloxy)-2-propanesulfonamide]	56 nM
CCc1noc(C)c1Cn1c(NS(=O)(=O)[C@@H](C)[C@H](OC)c2cnc(C)cn2)nnc1-c1cccc(OC)n1 [Example 195.0, (1R,2S)-N-(4-((3-ethyl-5-methylisoxazol-4-yl)methyl)-5-(6-methoxypyridin-2-yl)-4H-1,2,4-triazol-3-yl)-1-methoxy-1-(5-methylpyrazin-2-yl)propane-2-sulfonamide]	650 nM
CCc1cc(Cn2c(NS(=O)(=O)[C@@H](C)[C@H](C)c3ncc(Cl)cn3)nnc2-c2cccc(OC)n2)on1 [Example 196.0, (2S,3R)-3-(5-chloropyrimidin-2-yl)-N-(4-((3-ethylisoxazol-5-yl)methyl)-5-(6-methoxypyridin-2-yl)-4H-1,2,4-triazol-3-yl)butane-2-sulfonamide]	4.8 nM
COc1cc(Cn2c(NS(=O)(=O)[C@@H](C)[C@H](OC)c3ncc(Cl)cn3)nnc2-c2cccc(OC)n2)on1 [Example 197.0, (1R,2S)-1-(5-chloro-2-pyrimidinyl)-1-methoxy-N-(4-((3-methoxy-1,2-oxazol-5-yl)methyl)-5-(6-methoxy-2-pyridinyl)-4H-1,2,4-triazol-3-yl)-2-propanesulfonamide]	12 nM
COc1cc(Cn2c(NS(=O)(=O)[C@@H](C)[C@H](C)c3ncc(Cl)cn3)nnc2-c2cccc(OC)n2)on1 [Example 198.0, (2S,3R)-3-(5-chloro-2-pyrimidinyl)-N-(4-((3-methoxy-1,2-oxazol-5-yl)methyl)-5-(6-methoxy-2-pyridinyl)-4H-1,2,4-triazol-3-yl)-2-butanesulfonamide]	24 nM
COc1cc(Cn2c(NS(=O)(=O)[C@@H](C)[C@H](OC)c3cnc(C)cn3)nnc2-c2cccc(OC)n2)on1 [Example 199.0, (1R,2S)-1-methoxy-N-(4-((3-methoxy-1,2-oxazol-5-yl)methyl)-5-(6-methoxy-2-pyridinyl)-4H-1,2,4-triazol-3-yl)-1-(5-methyl-2-pyrazinyl)-2-propanesulfonamide]	220 nM
COc1cccc(-c2nnc(NS(=O)(=O)[C@@H](C)[C@H](OC)c3cnc(C)cn3)n2Cc2cc(C(F)(F)F)no2)n1 [Example 203.0, (1R,2S)-1-methoxy-N-(5-(6-methoxy-2-pyridinyl)-4-((3-(trifluoromethyl)-1,2-oxazol-5-yl)methyl)-4H-1,2,4-triazol-3-yl)-1-(5-methyl-2-pyrazinyl)-2-propanesulfonamide]	56 nM
COc1cccc(-c2nnc(NS(=O)(=O)[C@@H](C)[C@H](C)c3ncc(Cl)cn3)n2Cc2cc(C(F)(F)F)no2)n1 [Example 204.0, (2S,3R)-3-(5-chloro-2-pyrimidinyl)-N-(5-(6-methoxy-2-pyridinyl)-4-((3-(trifluoromethyl)-1,2-oxazol-5-yl)methyl)-4H-1,2,4-triazol-3-yl)-2-butanesulfonamide]	21 nM
COc1cccc(-c2nnc(NS(=O)(=O)[C@@H](C)[C@H](OC)c3ncc(Cl)cn3)n2Cc2cc(C(F)(F)F)no2)n1 [Example 205.0, (1R,2S)-1-(5-chloro-2-pyrimidinyl)-1-methoxy-N-(5-(6-methoxy-2-pyridinyl)-4-((3-(trifluoromethyl)-1,2-oxazol-5-yl)methyl)-4H-1,2,4-triazol-3-yl)-2-propanesulfonamide]	4.5 nM
COc1cccc(-c2nnc(NS(=O)(=O)[C@@H](C)[C@H](OC)c3cnc(C)cn3)n2Cc2ccno2)n1 [Example 206.0, (1R,2S)-1-methoxy-N-(5-(6-methoxy-2-pyridinyl)-4-(1,2-oxazol-5-ylmethyl)-4H-1,2,4-triazol-3-yl)-1-(5-methyl-2-pyrazinyl)-2-propanesulfonamide]	210 nM
COc1cccc(-c2nnc(NS(=O)(=O)[C@@H](C)[C@H](C)c3ncc(Cl)cn3)n2Cc2ccno2)n1 [Example 207.0, (2S,3R)-3-(5-chloro-2-pyrimidinyl)-N-(5-(6-methoxy-2-pyridinyl)-4-(1,2-oxazol-5-ylmethyl)-4H-1,2,4-triazol-3-yl)-2-butanesulfonamide]	30 nM
COc1cccc(-c2nnc(NS(=O)(=O)[C@@H](C)[C@H](C)c3ncc(Cl)cn3)n2Cc2ccon2)n1 [Example 260.0, (2S,3R)-3-(5-chloropyrimidin-2-yl)-N-(4-(isoxazol-3-ylmethyl)-5-(6-methoxypyridin-2-yl)-4H-1,2,4-triazol-3-yl)butane-2-sulfonamide]	5.1 nM
COc1cccc(-c2nnc(NS(=O)(=O)[C@@H](C)[C@@H](OC(C)C)c3ncc(C)cn3)n2Cc2ccon2)n1 [Example 261.0, (1S,2S)-1-isopropoxy-N-(4-(isoxazol-3-ylmethyl)-5-(6-methoxypyridin-2-yl)-4H-1,2,4-triazol-3-yl)-1-(5-methylpyrimidin-2-yl)propane-2-sulfonamide]	5.2 nM
CO[C@H](c1ncc(Cl)cn1)[C@H](C)S(=O)(=O)Nc1nnc(-c2cncc(C)c2)n1Cc1ccon1 [Example 262.0, (1R,2S)-1-(5-chloropyrimidin-2-yl)-N-(4-(isoxazol-3-ylmethyl)-5-(5-methylpyridin-3-yl)-4H-1,2,4-triazol-3-yl)-1-methoxypropane-2-sulfonamide]	200 nM
